In one experiment the test system is HCV 1b-377-neo replicon cells. Nature of the experiment: HCV replicon FRET assay. The class given is cell-based. The settings on record: Hepatitis C virus, read-out: Activity (EC50). (In general: In antiviral work, replicon cells carry a viral genome segment that copies itself.)
Usually EC50 stands for the concentration at which the effect is half-maximal. With `CC(C)(C)OC(=O)Nc1ccccc1C(=O)N1CCC[C@H]1C(=O)Nc1ccc(/C=C/c2ccc(NC(=O)[C@@H]3CCCN3C(=O)c3ccccc3NC(=O)OC(C)(C)C)cc2)cc1` [Example 150], the EC50 lay within 1000 to 10000 nM.

The same experiment, now with this note: Hepatitis C virus; HCV replicon; read-out: Activity (EC50).
Turning to `O=C(Nc1ccc(/C=C/c2ccc(NC(=O)[C@@H]3CCCN3C(=O)c3ccco3)cc2)cc1)[C@@H]1CCCN1C(=O)c1ccco1` [Example 67], the EC50 was in the range of 100 to 1000 nM. As to `CC(C)(C)O[C@@H]1C[C@@H](C(=O)Nc2ccc(/C=C/c3ccc(NC(=O)[C@@H]4C[C@@H](OC(C)(C)C)CN4C(=O)[C@H]4CCCO4)cc3)cc2)N(C(=O)[C@H]2CCCO2)C1` [Example 130], the EC50 was in the range of 0.1 to 90 nM. Regarding `CO[C@@H]1C[C@@H](C(=O)Nc2ccc(/C=C/c3ccc(NC(=O)[C@@H]4C[C@H](OC)CN4C(=O)OCc4ccccc4)cc3)cc2)N(C(=O)OCc2ccccc2)C1` [Example 15], the EC50 was in the range of 0.1 to 90 nM. For `O=C(c1ccccc1)c1cccnc1C(=O)N1CCC[C@H]1C(=O)Nc1ccc(/C=C/c2ccc(NC(=O)[C@@H]3CCCN3C(=O)c3ncccc3C(=O)c3ccccc3)cc2)cc1` [Example 174], the EC50 was in the range of 100 to 1000 nM.

For the compound `O=C(Nc1ccc(/C=C/c2ccc(NC(=O)[C@@H]3CCCN3C(=O)c3ccccc3Cc3ccccc3)cc2)cc1)[C@@H]1CCCN1C(=O)c1ccccc1Cc1ccccc1` [Example 171], the EC50 lay in the range of 100 to 1000 nM. Same read-out and setting: for `[N-]=[N+]=Nc1cccc(CC(=O)N2CCC[C@H]2C(=O)Nc2ccc(/C=C/c3ccc(NC(=O)[C@@H]4CCCN4C(=O)Cc4ccccc4)cc3)cc2)c1` [Example 126] the value was 0.1 to 90 nM; for `CSCC(=O)N1CCC[C@H]1C(=O)Nc1ccc(/C=C/c2ccc(NC(=O)[C@@H]3CCCN3C(=O)c3cccnc3)cc2)cc1` [Example 86], 0.1 to 90 nM. With `O=C(Nc1ccc(/C=C/c2ccc(NC(=O)[C@@H]3CCCN3C(=O)c3ccc(C(F)(F)F)nc3Cl)cc2)cc1)[C@@H]1CCCN1C(=O)c1ccc(C(F)(F)F)nc1Cl` [Example 195], the EC50 lay in the range of 1000 to 10000 nM. For `CC(=O)N1CCC[C@H]1C(=O)Nc1ccc(/C=C/c2ccc(NC(=O)[C@@H]3CCCN3C(=O)Cc3cccnc3)cc2)cc1` [Example 50], the EC50 was in the range of 0.1 to 90 nM. With `O=C(Nc1ccc(/C=C/c2ccc(NC(=O)[C@@H]3CCCN3C(=O)C3CC(=O)N(Cc4cccs4)C3)cc2)cc1)[C@@H]1CCCN1C(=O)C1CC(=O)N(Cc2cccs2)C1` (stereo partly shown) [Example 154], the EC50 lay within 1000 to 10000 nM.

For `O=C(Nc1ccc(/C=C/c2ccc(NC(=O)[C@@H]3COCN3C(=O)OCc3ccccc3)cc2)cc1)[C@@H]1COCN1C(=O)OCc1ccccc1` [Example 11], the EC50 is 1000 to 10000 nM. As for `O=C(Nc1ccc(/C=C/c2ccc(NC(=O)[C@@H]3C[C@@H](O)CN3C(=O)OCc3ccccc3)cc2)cc1)[C@@H]1CCCN1C(=O)Cc1ccccc1` [Example 275], the EC50 was in the range of 0.1 to 90 nM.

Take `CCC(=O)N1CC=C[C@H]1C(=O)Nc1ccc(/C=C/c2ccc(NC(=O)[C@@H]3C=CCN3C(=O)CC)cc2)cc1` [Example 71]: the EC50 fell in the range of 100 to 1000 nM. With `O=C(Nc1ccc(/C=C/c2ccc(NC(=O)[C@@H]3CCCN3C(=O)C3CC3)cc2)cc1)[C@@H]1CCCN1C(=O)Cc1cccnc1` [Example 63], the EC50 was in the range of 0.1 to 90 nM. For `COCC(=O)N1CCC[C@H]1C(=O)Nc1ccc(/C=C/c2ccc(NC(=O)[C@@H]3CCCN3C(=O)Cc3cc(C)no3)cc2)cc1` [Example 95], the EC50 lay within 0.1 to 90 nM. The same measure, in the same setting: for `O=C(Nc1ccc(/C=C/c2ccc(NC(=O)[C@@H]3CCCN3C(=O)c3cc(F)ccc3F)cc2)cc1)[C@@H]1CCCN1C(=O)c1cc(F)ccc1F` [Example 108] the value was 100 to 1000 nM. Regarding `O=C(Nc1ccc(/C=C/c2ccc(NC(=O)[C@@H]3CCCN3C(=O)Cc3ccccc3)cc2)cc1)c1ccccc1NCc1ccccc1` [Example 267], the EC50 lay within 100 to 1000 nM. For the compound `O=C(Nc1ccc(/C=C/c2ccc(NC(=O)[C@@H]3CCCN3C(=O)C3CCC3)cc2)cc1)[C@@H]1CCCN1C(=O)C1CCC1` [Example 44], the EC50 was 0.1 to 90 nM. In the case of `O=C(Nc1ccc(/C=C/c2ccc(NC(=O)[C@@H]3CCCN3C(=O)N3CCCC3)cc2)cc1)[C@@H]1CCCN1C(=O)N1CCCC1` [Example 286], the EC50 was in the range of 100 to 1000 nM. As to `CCC(=O)c1ccccc1C(=O)N1CCC[C@H]1C(=O)Nc1ccc(/C=C/c2ccc(NC(=O)[C@@H]3CCCN3C(=O)c3ccccc3C(=O)CC)cc2)cc1` [Example 136], the EC50 fell in the range of 1000 to 10000 nM. In the case of `Cc1cccc(C(=O)N2CCC[C@H]2C(=O)Nc2ccc(/C=C/c3ccc(NC(=O)[C@@H]4CCCN4)cc3)cc2)n1` [Example 113], the EC50 was 1000 to 10000 nM.

In the case of `CC(=O)c1ccccc1C(=O)N1CCC[C@H]1C(=O)Nc1ccc(/C=C/c2ccc(NC(=O)[C@@H]3CCCN3C(=O)c3ccccc3C(C)=O)cc2)cc1` [Example 135], the EC50 was in the range of 1000 to 10000 nM.

With `O=C(Nc1ccc(/C=C/c2ccc(NC(=O)[C@@H]3CCCN3C(=O)C3CC3)cc2)cc1)[C@@H]1CCCN1C(=O)C1CC1` [Example 31], the EC50 lay in the range of 0.1 to 90 nM. For `CC(C)N(C(=O)N1CCC[C@H]1C(=O)Nc1ccc(/C=C/c2ccc(NC(=O)[C@@H]3CCCN3C(=O)N(C(C)C)C(C)C)cc2)cc1)C(C)C` [Example 290], the EC50 lay within 0.1 to 90 nM. On to `CC(C)(C)OC(=O)N1CCC[C@H]1C(=O)Nc1ccc(/C=C/c2ccc(NC(=O)[C@@H]3CCCN3C(=O)OC(C)(C)C)cc2)cc1` [Example 21], for which the EC50 was 100 to 1000 nM. Regarding `CCc1ccncc1C(=O)N1CCC[C@H]1C(=O)Nc1ccc(/C=C/c2ccc(NC(=O)[C@@H]3CCCN3C(=O)c3cnccc3CC)cc2)cc1` [Example 197], the EC50 lay in the range of 100 to 1000 nM. For `O=C(Nc1ccc(/C=C/c2ccc(NC(=O)[C@@H]3CCCN3C(=O)Cc3ccccc3)c(F)c2)cc1F)[C@@H]1CCCN1C(=O)Cc1ccccc1` [Example 276], the EC50 lay in the range of 0.1 to 90 nM. Turning to `CCC/C=C/c1cccnc1C(=O)N1CCC[C@H]1C(=O)Nc1ccc(/C=C/c2ccc(NC(=O)[C@@H]3CCCN3C(=O)c3ncccc3/C=C/CCC)cc2)cc1` [Example 235], the EC50 was in the range of 1000 to 10000 nM. For `Cc1nc2sccn2c1C(=O)N1CCC[C@H]1C(=O)Nc1ccc(/C=C/c2ccc(NC(=O)[C@@H]3CCCN3C(=O)c3c(C)nc4sccn34)cc2)cc1` [Example 214], the EC50 lay in the range of 0.1 to 90 nM. For the compound `CNc1ccccc1C(=O)N1CCC[C@H]1C(=O)Nc1ccc(/C=C/c2ccc(NC(=O)[C@@H]3CCCN3C(=O)c3ccccc3NC)cc2)cc1` [Example 140], the EC50 lay within 100 to 1000 nM. With `O=C(Nc1ccc(/C=C/c2ccc(NC(=O)[C@@H]3CCCN3C(=O)Cc3cccc4ccccc34)cc2)cc1)[C@@H]1CCCN1C(=O)Cc1cccc2ccccc12` [Example 181], the EC50 was in the range of 100 to 1000 nM. On the same count and under the same terms, as for `O=C(Cc1cccnc1)Nc1ccc(/C=C/c2ccc(NC(=O)[C@@H]3CCCN3C(=O)Cc3cccnc3)cc2)cc1` [Example 270], the figure is 0.1 to 90 nM; as for `CCOc1ncccc1C(=O)N1CCC[C@H]1C(=O)Nc1ccc(/C=C/c2ccc(NC(=O)[C@@H]3CCCN3C(=O)c3cccnc3OCC)cc2)cc1` [Example 160], 1000 to 10000 nM; as for `O=C(Nc1ccc(/C=C/c2ccc(NC(=O)[C@@H]3CCCN3C(=O)[C@H]3CCCO3)cc2)cc1)C1CC1` [Example 260], 100 to 1000 nM. For the compound `COc1ccc2[nH]cc(CC(=O)N3CCC[C@H]3C(=O)Nc3ccc(/C=C/c4ccc(NC(=O)[C@@H]5CCCN5C(=O)Cc5c[nH]c6ccc(OC)cc56)cc4)cc3)c2c1` [Example 35], the EC50 was in the range of 0.1 to 90 nM.

For the compound `CC(C)c1scnc1C(=O)N1CCC[C@H]1C(=O)Nc1ccc(/C=C/c2ccc(NC(=O)[C@@H]3CCCN3C(=O)c3ncsc3C(C)C)cc2)cc1` [Example 190], the EC50 lay in the range of 100 to 1000 nM.

Values taken from US8143288B2, “Inhibitors of HCV replication” (priority 2005, dated 2012).
